This note sets out measurements from ChEMBL document CHEMBL1141991, “Functionalized dendrimers as endotoxin sponges” (Bioorg Med Chem Lett, 2005).

Test [1] is described as follows: Inhibitory concentration against lipopolysaccharide in BC fluorescenced murine macrophages J774A. The format is functional, Mus musculus.
The species entered for the next test is Mus musculus. As to the kind of experiment: Effective dose against lipopolysaccharide in BC fluorescenced murine macrophages J774A. The format is functional.

Broadly, the IC50 is the concentration that gives 50% inhibition. Read a low IC50 as greater potency in that assay.

Sequence POLYMYXIN B [listing 1 of 2 here] registered an IC50 in test [1] of 210 µM.

In the case of POLYMYXIN B [listing 2 of 2 here], in the test filed under Mus musculus, the ED50 is 0.31 µM.
